From ChEMBL document CHEMBL3507680, “University of Dundee, Gates Library screen for HepG2 cell viability”

Experiment: Human HepG2 cell viability assay in 384 well format
Type: toxicity, cell-based
Design: dose 125 nL, time 70.5 hour; cytotoxicity at 70.5 h: concentration not given beside the values
Conditions: HepG2 cells, read-out: Inhibition

Structure (SMILES)	cytotoxicity at 70.5 h
CCn1nc(C)cc1C(=O)N1C[C@@H]2C[C@@H](c3nnc(C)[nH]3)O[C@@H]2C1	-12.7%
Cc1nc(CN2CCN(C)C(=O)C23CCN(CC2CCCC2)CC3)cs1	-9.21%
Cc1ccc(N2C[C@@H]3OCCN(Cc4c(C)noc4C)[C@@H]3C2)nn1	-1.63%
CC(=O)N1CCn2c(C(=O)N(C)C)cnc2C1	-29.5%
COCCNC(=O)[C@H]1CN(c2nnc(C)s2)C[C@H]2OCC[C@@H]12	-17.6%
Cn1cnc2c1C(COCC1CCOCC1)CN(C(=O)c1ccoc1)C2 (stereo unspecified)	11.3%
Cc1cccc(CN2C(=O)CC[C@@H]3[C@H]2CCN3CC2CCOCC2)n1	-18.9%
Cn1c2c(ccc1=O)CC(NS(C)(=O)=O)CC2 (stereo unspecified)	27.8%
CS(=O)(=O)NC1CCc2c(ccc(=O)n2CC2CC2)C1 (stereo unspecified)	-15.1%
CC(C)CC(=O)N1CCc2nc(N3CCOCC3)nc(NC(C)C)c2C1	-15.8%
O=C(Cc1ccccn1)N1CCN(CC2CC2)c2ncccc2C1	-4.27%
O=C(c1ccoc1)N1CC[C@@H]2[C@H]1CCC(=O)N2c1ccccc1	-7.05%
Cc1ccc(C(=O)N2CC[C@@H]3[C@H]2CCC(=O)N3c2ccccc2)o1	-13.7%
Cn1nnc2c1CCN(Cc1ccccc1)C2COCC1CC1 (stereo unspecified)	-3.64%
COCCO[C@H]1CCN(C(=O)C2CCOCC2)[C@H]1Cc1ccncc1	29.3%
Cn1cccc1C(=O)N1CCC2(CC1)CN(c1cncnc1)C(=O)CO2	8.12%
O=C(c1ccco1)N1CC[C@H]2[C@H]1CCN2CC1CCOCC1	5.37%
O=C(c1ccc[nH]1)N1CCn2cc(Cn3cncn3)nc2C1	-9.02%
C[C@@H]1CN(C(=O)NC2CC2)C[C@]12CCN(c1ccsc1)C2=O	-3.3%
COCCO[C@H]1CCN(C(=O)c2ccc[nH]2)[C@H]1Cc1ccncc1	-3.06%
COCC(=O)N1CC[C@H]2C[C@H](C)O[C@@H]2C1	-7.04%
Cn1cccc1C(=O)N1CCc2ncnc(N3CCCC3)c2CC1	-5.07%

Structure (SMILES)	cytotoxicity at 70.5 h
CN(C)C(=O)N1C[C@H]2CN(Cc3cccc(F)c3)C(=O)[C@H]2C1	-9.2%
COc1cc(N2CC[C@H](O)[C@@H]2Cc2cnn(C)c2)ncn1	-13.3%
CCOCC1CN(C(=O)c2cscn2)Cc2nnn(CC3CC3)c21 (stereo unspecified)	-6.01%
O=C(C1CCOC1)N1C[C@H]2CN(Cc3ccccn3)C[C@H]2C1 (stereo partly specified)	-18%
O=C(c1ncccn1)N1C[C@H]2CCC[C@@]2(COCC2CCOCC2)C1	-15.9%
COc1ccc(CN2CCC3(CC2)CCN(c2ncccn2)CC3)cc1	-6.69%
CN1CCN(Cc2ccoc2)Cc2cccnc21	-4.02%
COCC(=O)N1CC[C@@H](N2CCOCC2)[C@@H]1Cc1ccccc1	4.62%
CCCN(CC)C(=O)c1cc2c(c3ccccc3n2C)n1C(=O)N(C)C	4.9%
CC(=O)N1CCC2(CCN(C(=O)c3ccc(Cl)c(C(F)(F)F)c3)CC2)C1	1.62%
O=C(CCc1ccncc1)N1CCc2c(ncnc2N2CCOCC2)C1	31.1%
Cc1cccc(CN2CCC(n3cc(CCO)nn3)CC2)c1C	2.7%
Fc1ccccc1CC1CCN(Cc2cscn2)CC1	-4.53%
O=C(Cn1ncc(N2CCCC2)cc1=O)Nc1ccc2nccnc2c1	-3.43%
O=C(CCC(F)(F)F)N1CCCC2(CCC(=O)N(CC3CC3)C2)C1 (stereo unspecified)	-15.8%
Cc1cc(C)c(C(=O)NC2CCCc3nc(N(C)C)ncc32)cc1C (stereo unspecified)	23.6%
COc1ccc(CCN)cc1-c1ccc(C(N)=O)cc1	-6.83%
CC(C)CN1CC(c2nc(C3CC3)n[nH]2)CC1=O (stereo unspecified)	-9.82%
COc1ccc2ncn(Cc3ncc[nH]3)c(=O)c2c1	2.5%
CN(Cc1ccccn1)C(=O)c1cc(CN2CCC(O)CC2)on1	-16.8%
Cc1ccnc(CNC(=O)C2CC(=O)N(CCN(C)C)C2)c1 (stereo unspecified)	-7.06%
CN1C[C@@H]2CC[C@H](C1)N(Cc1ccccc1OCCN1CCOCC1)C2	1.83%

Structure (SMILES)	cytotoxicity at 70.5 h
CCc1ccccc1OC1CN(C(=O)c2cccs2)C1	7.24%
COc1ccc(OC2CCN(C(=O)c3ccc(C(C)=O)s3)CC2)cc1	-6.92%
CCC(=O)c1ccc(OCC(=O)N2CCNCC2C(=O)NC2CC2)cc1 (stereo unspecified)	-9.05%
Cc1cccc(-c2nc(N)nc3c2CN(C(=O)c2cc(C)n[nH]2)C3C)c1 (stereo unspecified)	-13.9%
O=C(c1ccccn1)N1C[C@@H]2CC[C@H](C1)N(C(=O)CCN1CCCC1)C2	38%
O=C(Cn1ccc2ncccc2c1=O)N1CCCCC1	13.3%
CCOC(=O)N1CCN(C(=O)Cn2ccc3ncccc3c2=O)CC1	-8.19%
Cc1cc(N2CCCN(C(=O)Cc3cccnc3)CC2)ccn1	-6.53%
Cn1cnnc1SCC(=O)NC1CC(=O)N(CCc2cccc(Cl)c2)C1 (stereo unspecified)	-7.55%
CC(C1CCN(Cc2ccc(N(C)C)nc2)CC1)N1CCOCC1 (stereo unspecified)	8.61%
CC(C)CCn1cc(C(C(=O)O)N2CCC(c3ccncc3)CC2)cn1 (stereo unspecified)	19.8%
CCCc1cc(C(=O)N2CCC3(CCCN(CCOC)C3=O)C2)cs1 (stereo unspecified)	-7.15%
Cc1cc(NCCCC(F)(F)F)n2nc(C)cc2n1	-1.87%
O=C(CC(F)(F)F)N1C[C@H]2CC[C@@H]1CN(Cc1ccccc1)C2	-3.61%
O=C1CCC2(CCN(CCSc3ccccc3)CC2)CN1CCCO	-1.81%
Cc1ccc(S(=O)(=O)N2CCC(Cn3cc(C(C)(C)N)nn3)CC2)s1	-6.09%
CC(C)CN1CCn2nc(CNc3ncnc4[nH]cnc34)cc2C1	10.6%
Cc1cnc(N2CCC(c3ccccc3)CC2)nc1-c1ccnn1C	-6.13%
CN1CC2(CCN(C(=O)c3cccnc3)CC2)c2cccc(F)c21	-0.505%
Cc1nc(COC[C@@H]2CCC[C@@]23CNCCO3)cs1	15.5%
Cn1ccnc1CN1CCC2(CC1)COC2	-7.76%
Fc1cccc(CN2CCC3(CCCN3c3ncccn3)CC2)c1	5.31%

Structure (SMILES)	cytotoxicity at 70.5 h
CS(=O)(=O)N1CCOCC2(CCN(Cc3ccoc3)CC2)C1	-3.92%
COc1ncccc1CN1CCC2(CC1)CC(OCC1CC1)CO2 (stereo unspecified)	-4.27%
Cc1noc(C)c1CN1CC[C@H]2[C@@H]1CCC(=O)N2CC1CCOCC1	-3.53%
CCN1C[C@@H]2[C@@H](OC)CCN(S(=O)(=O)c3ccccc3)[C@@H]2C1	3.99%
CN(C)C(=O)CN1CCCC2(CCN(c3ccsc3)C2=O)C1 (stereo unspecified)	23.7%
COc1ccc(CN2CCCC3(CCN(c4ccsc4)C3=O)C2)cc1 (stereo unspecified)	2.29%
Cc1ncsc1CN1C[C@@H]2COC[C@]2(C(=O)NCC2CC2)C1	-3.67%
OCCN1CCOC2(CCCN(c3cccc(F)c3)C2)C1 (stereo unspecified)	-7.62%
O=C(NC1CCC1)[C@@H]1C[C@@H]2CCN(Cc3cccs3)C[C@@H]2O1	7.52%
Cc1nc(COC[C@@H]2CC[C@H]3[C@H](CCN3c3ncccn3)O2)cs1	-7.79%
O=S1(=O)c2ccccc2C2(CCN(Cc3ccccc3)C2)N1CC1CC1 (stereo unspecified)	-5.62%
CC(=O)N1CCC2(CC1)COCCN2Cc1ccc(F)cc1	-0.157%
O=C1[C@H]2CN(CC3CC3)C[C@H]2CN1c1ccsc1	-3.2%
Cn1cc(N2CCC3(CCN(Cc4nccs4)C3)C2=O)cn1 (stereo unspecified)	-12.1%
COc1ccc(CN2C[C@H]3CN(c4ccsc4)C(=O)[C@H]3C2)cc1	-20.7%
O=C1CC2(CCN(Cc3ccccn3)C2)CN1c1cncnc1 (stereo unspecified)	-16.1%
O=C(c1ccno1)N1CC[C@@H]2O[C@@H](COCCN3CCCC3)CC[C@@H]21	-17.9%
O=C(c1cscn1)N1CCC2(CCN(Cc3cccs3)CC2)C1	-6.38%
c1nc2c(c(C3CC3)n1)CCN(CC1CCOC1)CC2 (stereo unspecified)	-13.3%
CNC(=O)[C@@]12CCO[C@@H]1CCN(S(=O)(=O)c1cccnc1)C2	-13.7%
O=C(NCC1COCc2c(-c3cccnc3)nnn2C1)c1cccs1 (stereo unspecified)	-15.7%
Cc1ccc(N2CC[C@H]3O[C@@H](C(=O)NCc4ccco4)CC[C@H]32)nn1	-4.81%

Structure (SMILES)	cytotoxicity at 70.5 h
Cc1noc(C)c1CN1CC[C@H]2OCC[C@@]2(C(=O)N2CCCO2)C1	-7.09%
O=c1cccnn1CC1CN(Cc2ccsc2)Cc2nccn2C1 (stereo unspecified)	0.993%
O=C(Nc1ccccc1)N1CCn2nnc(COc3cccnc3)c2C1	1.76%
Cc1noc(C)c1CN1CC[C@H]2[C@H]1CCN2CC1CCOCC1	-5.25%
C[C@H]1CN(c2ccccn2)C[C@@]12CCN(Cc1cccnc1)C2=O	-0.624%
Cn1cnc2c1C(COCC1CCOCC1)CN(C1CCOCC1)C2 (stereo unspecified)	-25.6%
CCn1cc2c(n1)CN(Cc1ccncc1)CC2COCC1CC1 (stereo unspecified)	-17.6%
c1cncc(COC[C@H]2CC[C@H]3[C@H](CCN3Cc3cccs3)O2)c1	2.81%
COc1ccc(CN2C[C@@H](N(C)Cc3ccco3)[C@H]3OCCC[C@H]32)cc1	-8.22%
Cc1ccc(N2CCO[C@H]3CN(Cc4cnn(C)c4)C[C@H]32)nn1	-19.2%
Cc1ccc(N2CCO[C@H]3CN(CC4CC4)C[C@H]32)nn1	-13.4%
CN(C)CC1CN(Cc2ccc3c(c2)OCO3)Cc2nccn2C1 (stereo unspecified)	27.2%
O=C(c1ccccn1)N1Cc2nccn2CC(CN2CCOCC2)C1 (stereo unspecified)	-10.3%
CN(C)CC1CN(Cc2ccsc2)Cc2nccn2C1 (stereo unspecified)	-0.272%
CO[C@H]1CCN(Cc2cccs2)[C@@H]2CN(Cc3ccncc3)C[C@H]12	-2.84%
Cc1ccc(CN2CCOC3(COCCN(CCN(C)C)C3)C2)o1 (stereo unspecified)	-7.86%
CN(Cc1cccnc1)C1CC2(CCN(c3ccccn3)CC2)C1	-8.74%
c1ccc(CN2CC[C@]3(C[C@@H](Oc4ccccn4)CO3)C2)nc1	19.9%
